The results in this text go back to US6740505B1, “Production of proteins” (SmithKline Beecham Corporation, priority 1998, dated 2004).

Data set [1] concerns recombinant murine NS0 cells transfected with a IgG1 humanised anti-CD23 antibody. Put plainly: Antibody titre (Human IgG by nephelometric method) in repeated batch NS0 cell culture. The class given is cell-based. To be noted: 56 day culture. The protocol: (§1) Five Erlenmeyer flasks were inoculated with recombinant murine NS0 cells transfected with a IgG1 humanised anti-CD23 antibody (produced according to the method of Bebbington et al, as supra) in a cholesterol containing protein free/glutamine free medium at 0.2×10^6 cells/ml. Sodium butyrate (0.5M) in PBS was added to the flasks at the following concentrations: 0 mM; 0.025 mM; 0.05 mM; 0.075 mM and 0.10 mM and were incubated at […] and 100 rpm in a shake incubator for 4 days. Subsequently, the flasks were subcultured every four days to a start count of […], maintaining sodium butyrate concentrations as above in each flask. The flasks were sampled and assayed before each subculture. The culture was continued in this ‘draw-fill’/‘repeated batch’ manner for 56 days, maintaining sodium butyrate concentrations at the concentrations indicated throughout. Viable cells were counted for each sample taken as outlined below. Antibody titre for each sample taken was determined as outlined below.
The quantity of Human IgG was determined by a Nephelometric method (Tanford, C. (1961) Light Scattering. Physical Chemistry of Macromolecules. New York:Wiley, 275-316; Whicher J. T et al (1978), “An evaulation of Hyland laser nephelometer PDQ system for the measurement of immunoglobulins”; Ann.Clin.Biochem. 15, p77-85), whereby the formation of insoluble immune-precipitin of Human IgG with highly specific antibody to Human IgG was measured. The Nephelometer measured the intensity of the light scattered by the insoluble immune-precipitin in reaction solution. The change in intensity of the scattered light signal is proportional to the concentration of Human IgG in tested sample. The quantity of Human IgG in the sample is measured from a standard curve constructed from known concentration of purified Human IgG versus the rate of light scatter signal.

The test system is the same in data set [2]. Put plainly: Viable cell count (Erythrosin B exclusion, haemocytometer) in repeated batch NS0 cell culture. The class given is cell-based. The note with it: 0.075 mM butyrate. The protocol: as §1
Culture was diluted as necessary in culture medium. It was examined microscopically in a haemocytometer (Neubauer counting chamber) using Erythrosin B (Sigma) 0.04% w/v in PBS, pH 7 as an exclusion dye. The number of viable and non-viable cells per milliliter and the percentage viability of the culture was calculated.

For the molecule `CCCC(=O)[O-].[Na+]` [Butyrate, sodium butyrate], the “antibody titre over control” value is “marked increase in antibody titre over control” in data set [1] (0.075 mM butyrate maintained in medium); “marked increase over control” in data set [1] (0.075 mM butyrate maintained in medium, listed as butyrate); “marked increase in antibody titre over control” in data set [1] (0.1 mM butyrate maintained in medium). Besides, the “consistency of protein production during the culturing process” value in data set [1] (0.075 mM butyrate) is listed as “more consistent production”; in data set [1] (0.1 mM butyrate) it was “erratic protein production”. Also, the “decrease in viable cell count compared to control” value in data set [2] (by 56 day) was “narrowed considerably”. Moreover, the “viable cell count compared to control” value in data set [2] (early stages of the culturing process) was “slight decrease in viable cell count”.
